# Measurements taken from US20230265151A1, “GIP/GLP1 CO-AGONIST COMPOUNDS” (priority 2020, published 2023).
# Where two headings read alike, the source gives them in different places. *1 amine or outer side, *2 acyl side, *3 side chain or, on linkers, in order; H or OH if unused. Where a SMILES comes first, the peptide text is derived from it. Side-chain parts run from the residue outwards. [ ]: non-standard residue; d: D form. The star is where a group is joined. αMePhe(2-F) = C[C@](N)(Cc1ccccc1F)C(=O)O; γGlu = O=C(O)[C@H](CCC(=O)[*:2])N[*:1]; αMeY = C[C@](N)(Cc1ccc(O)cc1)C(=O)O; αMeL = CC(C)C[C@](C)(N)C(=O)O; Lauroyl = CCCCCCCCCCCC(=O)*; AEEA = NCCOCCOCC(=O)O; Aib = CC(C)(N)C(=O)O
# What was measured:
# Assay type in all cases: cell-based
# hGIPR = biological target: T1, hGIPR (Homo sapiens, UniProt P48546); test: Functional cAMP formation (HTRF) in HEK-293 clonal cells expressing hGIPR, 0.1% bovine casein, without or with 1.0% human serum albumin; conditions: 37° C.; for Emax: percent of maximal response to GIP(1-42)NH2, read-out: hGIPR Emax, % ± SEM; for EC50: cAMP, 0.1% bovine casein (no human serum albumin), geometric mean, read-out: hGIPR EC50, nM (SEM, n)
# T1 construct: expressed in transfected cells
# T1 sequence (P48546 22-466): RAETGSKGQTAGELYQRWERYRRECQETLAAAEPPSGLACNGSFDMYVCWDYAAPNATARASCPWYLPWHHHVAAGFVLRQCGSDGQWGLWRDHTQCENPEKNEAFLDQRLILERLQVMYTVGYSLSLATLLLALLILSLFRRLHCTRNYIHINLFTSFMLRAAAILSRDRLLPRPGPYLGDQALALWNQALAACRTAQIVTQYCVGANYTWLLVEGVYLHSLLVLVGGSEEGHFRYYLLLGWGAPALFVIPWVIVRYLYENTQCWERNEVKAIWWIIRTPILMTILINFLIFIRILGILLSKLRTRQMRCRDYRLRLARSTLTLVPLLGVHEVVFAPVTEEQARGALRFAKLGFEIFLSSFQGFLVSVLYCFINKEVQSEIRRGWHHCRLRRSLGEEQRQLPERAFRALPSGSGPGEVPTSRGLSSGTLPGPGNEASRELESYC
# Summary of the method: (§1)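 Cells were stimulated with peptide for 30 min at 37° C, then lysed in buffer carrying cAMP-d2 and anti-cAMP Eu3+-cryptate for a competitive HTRF read after at least 60 min at room temperature. The 665/620 nm ratio was converted to nM cAMP against a standard curve.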
# hGCGR = biological target: T2, hGCGR (Homo sapiens, UniProt P47871); test: Functional cAMP formation (HTRF) in HEK-293 clonal cells expressing hGCGR, 0.1% bovine casein, without or with 1.0% human serum albumin; conditions: 37° C., read-out: hGCGR EC50, nM (SEM, n)
# T2 construct: expressed in transfected cells
# T2 sequence (P47871 26-477): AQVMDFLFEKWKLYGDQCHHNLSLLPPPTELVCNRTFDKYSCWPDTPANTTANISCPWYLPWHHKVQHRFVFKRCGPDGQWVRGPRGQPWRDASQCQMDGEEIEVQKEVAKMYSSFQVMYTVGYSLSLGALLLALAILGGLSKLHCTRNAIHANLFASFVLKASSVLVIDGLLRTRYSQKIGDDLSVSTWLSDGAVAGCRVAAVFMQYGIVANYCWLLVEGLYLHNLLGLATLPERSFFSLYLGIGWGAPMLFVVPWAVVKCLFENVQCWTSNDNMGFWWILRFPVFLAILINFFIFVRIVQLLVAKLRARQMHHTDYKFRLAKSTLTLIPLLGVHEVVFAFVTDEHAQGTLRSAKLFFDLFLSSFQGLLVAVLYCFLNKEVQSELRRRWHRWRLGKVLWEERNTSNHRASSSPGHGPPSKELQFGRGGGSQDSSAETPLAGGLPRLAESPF
# Summary of the method: as §1
# hGLP-1R = hGLP-1R (Homo sapiens, UniProt P43220); test: Functional cAMP formation (HTRF) in HEK-293 clonal cells expressing hGLP-1R, 0.1% bovine casein, without or with 1.0% human serum albumin; parameters: expressed in transfected cells; conditions: 37° C.; for Emax: percent of maximal response to GLP-1(7-36)NH2, read-out: hGLP-1R Emax, % ± SEM; for EC50: read-out: hGLP-1R EC50, nM (SEM, n)
# Chain of hGLP-1R (P43220 24-463): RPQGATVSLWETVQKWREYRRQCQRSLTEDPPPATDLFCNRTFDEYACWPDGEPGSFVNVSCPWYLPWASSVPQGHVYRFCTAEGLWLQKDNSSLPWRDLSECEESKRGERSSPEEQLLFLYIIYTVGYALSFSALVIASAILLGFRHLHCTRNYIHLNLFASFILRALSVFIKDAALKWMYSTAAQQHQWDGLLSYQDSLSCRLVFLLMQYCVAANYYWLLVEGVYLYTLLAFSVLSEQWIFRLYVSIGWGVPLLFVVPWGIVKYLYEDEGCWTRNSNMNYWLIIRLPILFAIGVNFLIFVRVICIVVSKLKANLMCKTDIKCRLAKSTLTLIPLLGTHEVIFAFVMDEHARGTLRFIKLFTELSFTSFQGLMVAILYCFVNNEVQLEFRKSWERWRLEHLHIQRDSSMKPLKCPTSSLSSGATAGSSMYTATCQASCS
# Summary of the method: as §1
# [1] = HEK293, cAMP, 0.1% bovine casein and 1.0% human serum albumin
# [2] = cAMP, 0.1% bovine casein (no human serum albumin), geometric mean
# [3] = cAMP, 0.1% bovine casein and 1.0% human serum albumin, geometric mean (SEM, n)
# [4] = HEK293, 0.1% bovine casein and 1.0% human serum albumin
# [5] = 0.1% bovine casein and 1.0% human serum albumin, geometric mean
# [6] = HEK293, cAMP, 0.1% bovine casein, arithmetic mean
Compound,Emax (hGIPR; [1]),EC50 (hGIPR),EC50 (hGCGR; [2]),EC50 (hGCGR; [3]),Emax (hGLP-1R; [1]),EC50 (hGLP-1R; [2]),EC50 (hGLP-1R; [3]),Emax (hGIPR; [4]),EC50 (hGCGR; [5]),EC50 (hGLP-1R; [5]),Emax (hGLP-1R; [4]),Emax (hGIPR; [6])
CCCCCCCCCCCC(=O)N[C@@H](CCC(=O)NCCOCCOCC(=O)NCCOCCOCC(=O)NCCCC[C@H](NC(=O)CNC(=O)[C@H](CC(=O)O)NC(=O)[C@H](CC(C)C)NC(=O)[C@](C)(CC(C)C)NC(=O)[C@@H](NC(=O)C(C)(C)NC(=O)[C@H](CCCCNC(=O)COCCOCCNC(=O)COCCOCCNC(=O)CC[C@H](NC(=O)CCCCCCCCCCC)C(=O)O)NC(=O)[C@H](CC(=O)O)NC(=O)[C@H](CO)NC(=O)[C@@H](NC(=O)[C@](C)(Cc1ccccc1F)NC(=O)[C@@H](NC(=O)CNC(=O)[C@H](CCC(=O)O)NC(=O)C(C)(C)NC(=O)[C@@H](N)Cc1ccc(O)cc1)[C@@H](C)O)[C@@H](C)O)[C@@H](C)CC)C(=O)N[C@@H](C)C(=O)N[C@@H](CCC(N)=O)C(=O)NC(C)(C)C(=O)N[C@@H](CCC(=O)O)C(=O)N[C@@H](Cc1ccccc1)C(=O)N[C@H](C(=O)N[C@H](CCC(=O)O)C(=O)N[C@@](C)(Cc1ccc(O)cc1)C(=O)N[C@@H](CC(C)C)C(=O)N[C@H](C(=O)N[C@@H](CCC(=O)O)C(=O)NCC(=O)NCC(=O)N1CCC[C@H]1C(=O)N[C@@H](CO)C(=O)N[C@@H](CO)C(=O)NCC(=O)N[C@@H](C)C(=O)N1CCC[C@H]1C(=O)N1CCC[C@H]1C(=O)N1CCC[C@H]1C(=O)N[C@@H](CO)C(N)=O)[C@@H](C)CC)[C@@H](C)CC)C(=O)O [Example 445] (H-Y[Aib]EGT[αMePhe(2-F)]TSDK([AEEA-AEEA-γGlu-Lauroyl])[Aib]I[αMeL]LDGK([AEEA-AEEA-γGlu-Lauroyl])AQ[Aib]EFI[dE][αMeY]LIEGGPSSGAPPPS-NH2; N-terminus assumed),91.4%,0.00728 nM,> 9950 nM,> 9950 nM,100%,0.0781 nM,13.1 nM,–,–,–,–,–
CCCC[C@H](NC(=O)[C@H](CC(=O)O)NC(=O)[C@H](CO)NC(=O)[C@@H](NC(=O)[C@](C)(Cc1ccccc1F)NC(=O)[C@@H](NC(=O)CNC(=O)[C@H](CCC(=O)O)NC(=O)C(C)(C)NC(=O)[C@@H](N)Cc1ccc(O)cc1)[C@@H](C)O)[C@@H](C)O)C(=O)N[C@@H](CO)C(=O)N[C@H](C(=O)N[C@@](C)(CC(C)C)C(=O)N[C@@H](CC(C)C)C(=O)N[C@@H](CC(=O)O)C(=O)N[C@@H](CCCN)C(=O)N[C@@H](CCCCNC(=O)COCCOCCNC(=O)COCCOCCNC(=O)CCCCCCCCCCCCC(=O)O)C(=O)N[C@@H](C)C(=O)N[C@@H](CCC(N)=O)C(=O)NC(C)(C)C(=O)N[C@@H](CCCCNC(=O)COCCOCCNC(=O)COCCOCCNC(=O)CCCCCCCCCCCCC(=O)O)C(=O)N[C@@H](Cc1ccccc1)C(=O)N[C@H](C(=O)N[C@H](CCC(=O)O)C(=O)N[C@@](C)(Cc1ccc(O)cc1)C(=O)N[C@@H](CC(C)C)C(=O)N[C@H](C(=O)N[C@@H](CCC(=O)O)C(=O)NCC(=O)NCC(=O)N1CCC[C@H]1C(=O)N[C@@H](CO)C(=O)N[C@@H](CO)C(=O)NCC(=O)N[C@@H](C)C(=O)N1CCC[C@H]1C(=O)N1CCC[C@H]1C(=O)N1CCC[C@H]1C(=O)N[C@@H](CO)C(N)=O)[C@@H](C)CC)[C@@H](C)CC)[C@@H](C)CC [Example 271],–,0.0186 nM,> 9950 nM,–,–,–,–,97.3%,> 9950 nM,10.2 nM,122%,–
CCCCCCCCCCCC(=O)N[C@@H](CCC(=O)NCCOCCOCC(=O)NCCOCCOCC(=O)NCCCC[C@H](NC(=O)[C@H](CCCN)NC(=O)[C@H](CC(=O)O)NC(=O)[C@H](CC(C)C)NC(=O)[C@](C)(CC(C)C)NC(=O)[C@@H](NC(=O)C(C)(C)NC(=O)[C@H](Cc1ccncc1)NC(=O)[C@H](CC(=O)O)NC(=O)[C@H](CO)NC(=O)[C@@H](NC(=O)[C@](C)(Cc1ccccc1F)NC(=O)[C@@H](NC(=O)CNC(=O)[C@H](CCC(=O)O)NC(=O)C(C)(C)NC(=O)[C@@H](N)Cc1ccc(O)cc1)[C@@H](C)O)[C@@H](C)O)[C@@H](C)CC)C(=O)N[C@@H](C)C(=O)N[C@@H](CCC(N)=O)C(=O)NC(C)(C)C(=O)N[C@@H](Cc1ccncc1)C(=O)N[C@@H](Cc1ccccc1)C(=O)N[C@H](C(=O)N[C@H](CCC(=O)O)C(=O)N[C@@](C)(Cc1ccc(O)cc1)C(=O)N[C@@H](CC(C)C)C(=O)N[C@H](C(=O)N[C@@H](CCCCNC(=O)COCCOCCNC(=O)COCCOCCNC(=O)CC[C@H](NC(=O)CCCCCCCCCCC)C(=O)O)C(=O)NCC(=O)NCC(=O)N1CCC[C@H]1C(=O)N[C@@H](CO)C(=O)N[C@@H](CO)C(=O)NCC(=O)N[C@@H](C)C(=O)N1CCC[C@H]1C(=O)N1CCC[C@H]1C(=O)N1CCC[C@H]1C(=O)N[C@@H](CO)C(N)=O)[C@@H](C)CC)[C@@H](C)CC)C(=O)O [Example 416],83%,0.0214 nM,> 9950 nM,> 9950 nM,109%,0.332 nM,–,–,–,–,–,99%
CC[C@H](C)[C@H](NC(=O)[C@H](CC(C)C)NC(=O)[C@](C)(Cc1ccc(O)cc1)NC(=O)[C@H](CCCCNC(=O)COCCOCCNC(=O)COCCOCCNC(=O)CC[C@H](NC(=O)CCCCCCCCCCCCC(=O)O)C(=O)O)NC(=O)[C@@H](NC(=O)[C@H](Cc1ccccc1)NC(=O)[C@H](Cc1ccncc1)NC(=O)C(C)(C)NC(=O)[C@H](CCC(N)=O)NC(=O)[C@H](C)NC(=O)[C@H](CCC(N)=O)NC(=O)[C@H](CCCN)NC(=O)[C@H](CC(=O)O)NC(=O)[C@H](CC(C)C)NC(=O)[C@](C)(CC(C)C)NC(=O)[C@@H](NC(=O)C(C)(C)NC(=O)[C@H](Cc1ccncc1)NC(=O)[C@H](CC(=O)O)NC(=O)[C@H](CO)NC(=O)[C@@H](NC(=O)[C@](C)(Cc1ccccc1F)NC(=O)[C@@H](NC(=O)CNC(=O)[C@H](CCC(=O)O)NC(=O)C(C)(C)NC(=O)[C@@H](N)Cc1ccc(O)cc1)[C@@H](C)O)[C@@H](C)O)[C@@H](C)CC)[C@@H](C)CC)C(=O)N[C@@H](CCCCNC(=O)COCCOCCNC(=O)COCCOCCNC(=O)CC[C@H](NC(=O)CCCCCCCCCCCCC(=O)O)C(=O)O)C(=O)NCC(=O)NCC(=O)N1CCC[C@H]1C(=O)N[C@@H](CO)C(=O)N[C@@H](CO)C(=O)NCC(=O)N[C@@H](C)C(=O)N1CCC[C@H]1C(=O)N1CCC[C@H]1C(=O)N1CCC[C@H]1C(=O)N[C@@H](CO)C(N)=O [Example 444],83.6%,0.0157 nM,> 9950 nM,> 9950 nM,98.8%,0.289 nM,7.51 nM,–,–,–,–,93.6%
CC[C@H](C)[C@H](NC(=O)[C@H](CC(C)C)NC(=O)[C@](C)(Cc1ccc(O)cc1)NC(=O)[C@@H](CCC(=O)O)NC(=O)[C@@H](NC(=O)[C@H](Cc1ccccc1)NC(=O)[C@H](CCCN)NC(=O)C(C)(C)NC(=O)[C@H](CCC(N)=O)NC(=O)[C@H](C)NC(=O)[C@H](CCCCNC(=O)COCCOCCNC(=O)COCCOCCNC(=O)CC[C@H](NC(=O)CCCCCCCCCCCCC(=O)O)C(=O)O)NC(=O)[C@H](CCCN)NC(=O)[C@H](CC(=O)O)NC(=O)[C@H](CC(C)C)NC(=O)[C@](C)(CC(C)C)NC(=O)[C@@H](NC(=O)C(C)(C)NC(=O)[C@H](Cc1ccncc1)NC(=O)[C@H](CC(=O)O)NC(=O)[C@H](CO)NC(=O)[C@@H](NC(=O)[C@](C)(Cc1ccccc1F)NC(=O)[C@@H](NC(=O)CNC(=O)[C@H](CCC(=O)O)NC(=O)C(C)(C)NC(=O)[C@@H](N)Cc1ccc(O)cc1)[C@@H](C)O)[C@@H](C)O)[C@@H](C)CC)[C@@H](C)CC)C(=O)N[C@@H](CCCCNC(=O)COCCOCCNC(=O)COCCOCCNC(=O)CC[C@H](NC(=O)CCCCCCCCCCCCC(=O)O)C(=O)O)C(=O)NCC(=O)NCC(=O)N1CCC[C@H]1C(=O)N[C@@H](CO)C(=O)N[C@@H](CO)C(=O)NCC(=O)N[C@@H](C)C(=O)N1CCC[C@H]1C(=O)N1CCC[C@H]1C(=O)N1CCC[C@H]1C(=O)N[C@@H](CO)C(N)=O [Example 348],79.3%,0.0228 nM,> 9950 nM,> 9950 nM,98%,0.805 nM,8.95 nM,–,–,–,–,95.9%
